Consider twelve molecules from patent US10611740B2, “Aryl dihydro-2H-benzo[b][1,4]oxazine sulfonamide and related compounds for use as agonists of RORγ and the treatment of disease” (Lycera Corporation, priority 2015, dated 2020).

Broadly, the pEC50 is the EC50 on a negative log10 scale, so that one unit is a factor of ten. A higher pEC50 goes with a small EC50.

The target of one test is T1, RORγ-LBD (Homo sapiens, UniProt P51449).
T1 construct: made in house; host or cells: SF9 cells (baculovirus)
T1 sequence (P51449 269-508 limits assumed): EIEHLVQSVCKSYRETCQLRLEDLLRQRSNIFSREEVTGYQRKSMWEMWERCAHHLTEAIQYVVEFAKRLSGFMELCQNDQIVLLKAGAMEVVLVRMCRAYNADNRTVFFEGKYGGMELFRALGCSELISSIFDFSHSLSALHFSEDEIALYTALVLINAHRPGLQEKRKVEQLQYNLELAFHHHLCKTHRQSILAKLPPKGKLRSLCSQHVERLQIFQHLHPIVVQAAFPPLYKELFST
The test can be described thus: RORγ-Ligand Binding Domain (LBD) TR-FRET Assay.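 As to TR-FRET Assay Max Response: 665/615 nm ratio relative to signal without ursolic acid or compound set at 100.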 The test is classed as biochemical. In short, it runs like this: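 Lysate from SF9 cells expressing His-RORγ-LBD is diluted to about 3 nM final in 50 mM Tris pH 7.0 assay buffer. A biotin-tagged SRC1 LXXLL peptide goes in at 200 nM final, plus ursolic acid at 2 μM final. Test compounds carry 1% DMSO final; signal read by TR-FRET.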
A general note: TR-FRET usually uses a lanthanide donor and a delayed reading to cut background.

A further test addresses T2, Gal4-RORγ-LBD (Homo sapiens, UniProt P51449).
T2 construct: expressed in transfected cells; host or cells: HEK-293 cells (pcDNA3.1neo plasmid)
T2 sequence (P51449 269-508 limits assumed): T1 sequence (P51449 269-508 limits assumed)
The test can be described thus: Gal4-RORγ Luciferase Reporter Assay in HEK-293T Cells. The settings on record: HEK-293 cells. The test is classed as cell-based. In short, it runs like this: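 In transfected HEK-293 cells (Gal4-RORγ-LBD, Gal4-luciferase), test agents with 2 μM ursolic acid were incubated overnight at 37 °C before luminescent detection. Values are relative to the ursolic-acid-free, compound-free signal (100).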
(Reporter assays use an easily measured gene product as a stand-in for the process of interest.)

The mark [1] stands for this setting: luciferase reporter, with 2 μM ursolic acid.

pEC50: −log10 of the molar value.

For `CC(=O)N[C@H]1C[C@@](C[C@H]2CN(S(=O)(=O)c3cccc(C(F)(F)F)c3)c3cc(-c4cc(F)cc(OC(F)F)c4)ccc3O2)(C(=O)O)C1` [Compound 84, (1s,3R)-3-acetamido-1-(((S)-6-(3-(difluoromethoxy)-5-fluorophenyl)-4-((3-(trifluoromethyl)phenyl)sulfonyl)-3,4-dihydro-2H-benzo[b][1,4]oxazin-2-yl)methyl)cyclobutane-1-carboxylic acid], on RORγ-LBD, the pEC50 is above 6.30 and the “TR-FRET Assay Max Response” value is “** (The symbol “**” indicates a value in the range of greater than 90 to 150)”. In addition, at Gal4-RORγ-LBD (2 μM ursolic acid), the pEC50 was 5.30 to 6.30 and the “Gal4-RORγ Assay Max Response” value is “* (The symbol “*” indicates a value in the range of 25 to 90)”.
As to `O=C(O)CC[C@H]1CN(S(=O)(=O)c2cccc(Cl)c2)c2cc(-c3cccc(Cl)c3)ccc2O1` [Compound 6B, (S)-3-(6-(3-chlorophenyl)-4-((3-chlorophenyl)sulfonyl)-3,4-dihydro-2H-benzo[b][1,4]oxazin-2-yl)propanoic acid], on RORγ-LBD, the pEC50 is above 6.30 and the “TR-FRET Assay Max Response” value is listed as “**** (The symbol “****” indicates a value greater than 200)”. Also, at Gal4-RORγ-LBD (setting [1]), the pEC50 was 5.30 to 6.30 and the “Gal4-RORγ Assay Max Response” value is on record as “** (The symbol “**” indicates a value in the range of greater than 90 to 150)”.
Turning to `CC(C)(C[C@H]1CN(S(=O)(=O)c2cccc(C(F)(F)F)c2)c2cc(-c3cc(F)ccc3F)ccc2O1)NC(=O)C(C)(C)O` [Compound 30CX, (S)-N-(1-(6-(2,5-difluoro-phenyl)-4-((3-(trifluoromethyl)-phenyl)sulfonyl)-3,4-dihydro-2H-benzo[b][1,4]oxazin-2-yl)-2-methylpropan-2-yl)-2-hydroxy-2-methylpropanamide], on RORγ-LBD, the pEC50 was above 6.30 and the “TR-FRET Assay Max Response” value is “** (The symbol “**” indicates a value in the range of greater than 90 to 150)”. For the same molecule, at Gal4-RORγ-LBD (2 μM ursolic acid), the pEC50 is above 6.30 and the “Gal4-RORγ Assay Max Response” value was “* (The symbol “*” indicates a value in the range of 25 to 90)”.
Take `CNc1cccc(-c2ccc3c(c2)N(S(=O)(=O)c2cccc(C(F)(F)F)c2)C[C@H](CCC(=O)O)O3)n1` [Compound 4AM, (S)-3-(6-(6-(methylamino)-pyridin-2-yl)-4-((3-(trifluoromethyl)phenyl)-sulfonyl)-3,4-dihydro-2H-benzo[b][1,4]oxazin-2-yl)propanoic acid]: on RORγ-LBD, the pEC50 was above 6.30 and the “TR-FRET Assay Max Response” value is reported as “**** (The symbol “****” indicates a value greater than 200)”. Moreover, at Gal4-RORγ-LBD (setting [1]), the pEC50 was 5.30 to 6.30 and the “Gal4-RORγ Assay Max Response” value is given as “** (The symbol “**” indicates a value in the range of greater than 90 to 150)”.
Turning to `CC(C)(C[C@H]1CN(S(=O)(=O)c2cccc(C(F)(F)F)c2)c2cc(-c3cc(C(F)(F)F)ccc3Cl)ccc2O1)C(=O)O` [Compound 32AD, (S)-3-(6-(2-chloro-5-(trifluoromethyl)phenyl)-4-((3-(trifluoromethyl)phenyl)sulfonyl)-3,4-dihydro-2H-benzo[b][1,4]oxazin-2-yl)-2,2-dimethylpropanoic acid], on RORγ-LBD, the pEC50 is above 6.30 and the “TR-FRET Assay Max Response” value is “*** (The symbol “***” indicates a value in the range of greater than 150 to 200)”. Besides, on Gal4-RORγ-LBD (2 μM ursolic acid), the pEC50 was above 6.30 and the “Gal4-RORγ Assay Max Response” value is reported as “* (The symbol “*” indicates a value in the range of 25 to 90)”.
With `O=C(O)CC[C@H]1CN(S(=O)(=O)c2cc(F)cc(C(F)(F)F)c2)c2cc(-c3cc(F)ccc3F)ccc2O1` [Compound 6J, (S)-3-(6-(2,5-difluorophenyl)-4-((3-fluoro-5-(trifluoromethyl)phenyl)-sulfonyl)-3,4-dihydro-2H-benzo[b][1,4]oxazin-2-yl)propanoic acid], on RORγ-LBD, the pEC50 was above 6.30 and the “TR-FRET Assay Max Response” value is given as “*** (The symbol “***” indicates a value in the range of greater than 150 to 200)”. On Gal4-RORγ-LBD (setting [1]), the pEC50 was above 6.30 and the “Gal4-RORγ Assay Max Response” value is listed as “** (The symbol “**” indicates a value in the range of greater than 90 to 150)”.
For `COc1cc(-c2ccc3c(c2)N(S(=O)(=O)c2cccc(C(F)(F)F)c2)C[C@H](CCC(=O)O)O3)nc(N(C)C)c1` [Compound 4AP, (S)-3-(6-(6-(dimethylamino)-4-methoxypyridin-2-yl)-4-((3-(trifluoromethyl)phenyl)sul-fonyl)-3,4-dihydro-2H-benzo[b][1,4]oxazin-2-yl)propanoic acid], on RORγ-LBD, the pEC50 is above 6.30 and the “TR-FRET Assay Max Response” value is reported as “**** (The symbol “****” indicates a value greater than 200)”. On Gal4-RORγ-LBD (setting [1]), the pEC50 is above 6.30 and the “Gal4-RORγ Assay Max Response” value is given as “** (The symbol “**” indicates a value in the range of greater than 90 to 150)”.
With `O=C(O)CC[C@H]1CN(S(=O)(=O)c2cccc(C(F)(F)F)c2)c2cc(-c3cccc(C4CC4)c3)ccc2O1` [Compound 4R, (S)-3-(6-(3-cyclopropylphenyl)-4-((3-(trifluoromethyl)phenyl)-sulfonyl)-3,4-dihydro-2H-benzo[b][1,4]oxazin-2-yl)propanoic acid], on RORγ-LBD, the pEC50 is above 6.30 and the “TR-FRET Assay Max Response” value is on record as “**** (The symbol “****” indicates a value greater than 200)”. Also, on Gal4-RORγ-LBD (setting [1]), the pEC50 was above 6.30 and the “Gal4-RORγ Assay Max Response” value is recorded as “**** (The symbol “****” indicates a value greater than 200)”.
For the molecule `O=C(O)CC[C@H]1CN(S(=O)(=O)c2cccc(C(F)(F)F)c2)c2cc(-c3ccc(F)c(C(F)(F)F)c3)ccc2O1` [Compound 2AF, (S)-3-(6-(4-fluoro-3-(trifluoromethyl)phenyl)-4-((3-(trifluoromethyl)phenyl)-sulfonyl)-3,4-dihydro-2H-benzo[b][1,4]oxazin-2-yl)propanoic acid], on RORγ-LBD, the pEC50 was above 6.30 and the “TR-FRET Assay Max Response” value is “**** (The symbol “****” indicates a value greater than 200)”. In addition, the pEC50 at Gal4-RORγ-LBD (setting [1]) was below 5.00.
On to `O=C(O)CC[C@H]1CN(S(=O)(=O)c2cccc(C(F)(F)F)c2)c2cc(-c3cccnc3-c3ccccc3)ccc2O1` [Compound 4AD, (S)-3-(6-(2-phenylpyridin-3-yl)-4-((3-(trifluoromethyl)-phenyl)sulfonyl)-3,4-dihydro-2H-benzo[b][1,4]oxazin-2-yl)propanoic acid], for which the pEC50 on RORγ-LBD and at Gal4-RORγ-LBD (setting [1]) was below 5.00 each time.
Turning to `CC(C)(O)C(=O)NCC[C@H]1CN(S(=O)(=O)c2cccc(C(F)(F)F)c2)c2cc(-c3cc(F)ccc3F)ccc2O1` [Compound 29, (S)—N-(2-(6-(2,5-difluorophenyl)-4-((3-(trifluoromethyl)phenyl)sulfonyl)-3,4-dihydro-2H-benzo[b][1,4]oxazin-2-yl)ethyl)-2-hydroxy-2-methylpropanamide], on RORγ-LBD, the pEC50 is above 6.30 and the “TR-FRET Assay Max Response” value is recorded as “**** (The symbol “****” indicates a value greater than 200)”. In addition, on Gal4-RORγ-LBD (setting [1]), the pEC50 was above 6.30 and the “Gal4-RORγ Assay Max Response” value was “** (The symbol “**” indicates a value in the range of greater than 90 to 150)”.
As to `COc1ccc(-c2ccc3c(c2)N(S(=O)(=O)c2cccc(C(F)(F)F)c2)C[C@H](CCC(=O)O)O3)cc1Cl` [Compound 2AN, (S)-3-(6-(3-chloro-4-methoxyphenyl)-4-((3-(trifluoromethyl)phenyl)-sulfonyl)-3,4-dihydro-2H-benzo[b][1,4]oxazin-2-yl)propanoic acid], on RORγ-LBD, the pEC50 was above 6.30 and the “TR-FRET Assay Max Response” value was “**** (The symbol “****” indicates a value greater than 200)”. Moreover, at Gal4-RORγ-LBD (setting [1]), the pEC50 is above 6.30 and the “Gal4-RORγ Assay Max Response” value is reported as “** (The symbol “**” indicates a value in the range of greater than 90 to 150)”.
